Experimental data as given in patent US8609710B2, “Cycloalkyl-substituted imidazole derivative” (Daiichi Sankyo Company, Limited, priority 2010, dated 2013).
pEC50, pIC50: −log10 of the molar value. Structures can show the parent of a compound that is named as a salt.

Columns and labels:
TAFIa = TAFIa (Homo sapiens (Human), UniProt Q96IY4); assay: Determination of TAFIa enzyme inhibitory activity; type: biochemical; conditions: substrate furylacryloyl-alanyl-lysine (FAAK), absorbance at 330 nm
Experimental: HEPES buffered saline (20 mM HEPES, 150 mM NaCl, pH 7.4; hereinafter, referred to as HBS) was used in the preparation of a reaction solution. To 12 μL of a 250 μg/mL TAFI solution, 30 μL of an HBS solution containing 4 U/mL human thrombin, 12 U/mL rabbit lung thrombomodulin, and 12 mM CaCl2 was added, and the mixture was gently stirred. Then, TAFI was activated at room temperature. Ten minutes later, thrombin was neutralized by the addition of 10 μL of 100 μM PPACK (thrombin inhibitor) to terminate the activation of TAFI. The formed TAFIa was stored in ice and diluted immediately before use in determination with 2050 μL of an HBS solution containing BSA (bovine serum albumin) adjusted to 0.1% in terms of the final concentration.
A test substance was dissolved in HBS to prepare a 10-fold dilution series of evaluation concentrations. 80 μl, of the TAFIa solution and 10 μL of the test substance were added to each well of a 96-well plate and mixed by shaking for 10 minutes. 10 μL, of furylacryloyl-alanyl-lysine (FAAK) adjusted to 5 mg/mL was added to each well, and the change in the absorbance of this mixed solution at 330 nm was read for 30 minutes to determine the degradation rate of the substrate.
The degradation rate of the substrate in each well was applied to a standard curve prepared using the dilution series of the TAFIa solution to calculate TAFIa activity. The 50% inhibitory concentration (IC50) was calculated based on the correlation between the concentration of the test compound and the TAFIa activity. Compound A (compound of Example 7 in the pamphlet of International Publication No. WO 2002/014285) was used as a control.

normal human plasma = assay: Fibrinolysis enhancing activity by measurement of time of plasma clot lysis; type: biochemical; conditions: normal human plasma with tPA; concentration that achieves 50% of 1/2 LT
Experimental: To a 96-well plate, 20 μL/well HBS, 50 μL/well normal human plasma, 10 μL/well compound solution (the compound solution was prepared by dissolving the compound in HBS, followed by serial dilution with this buffer), and 10 μL/well tPA (Activacin (Kyowa Hakko Kirin Co., Ltd.) was adjusted to 600,000 U/mL with a lysis solution included therein, followed by dilution with HBS) were added, and the mixture was stirred. Then, 10 μL/well reaction solution A (13.8 U/mL human thrombin, 170 mM CaCl2, and 0.9 U/mL thrombomodulin) was added thereto, and the mixture was stirred again. The absorbance at 405 nm was measured using a plate reader at 30-second intervals, with the temperature kept at 37° C. to measure the extent of coagulation. […] A concentration that achieves 50% of 1/2 LT was calculated as EC50 from the relationship between the concentration of the test substance and 1/2 LT. Compound A (compound of Example 7 in the pamphlet of International Publication No. WO 2002/014285) was used as a control.

[1] = system: iron chloride-induced thrombus models; conditions: mice, intravenous administration; cited from earlier work

TAFIa, sequence (Q96IY4 115-423): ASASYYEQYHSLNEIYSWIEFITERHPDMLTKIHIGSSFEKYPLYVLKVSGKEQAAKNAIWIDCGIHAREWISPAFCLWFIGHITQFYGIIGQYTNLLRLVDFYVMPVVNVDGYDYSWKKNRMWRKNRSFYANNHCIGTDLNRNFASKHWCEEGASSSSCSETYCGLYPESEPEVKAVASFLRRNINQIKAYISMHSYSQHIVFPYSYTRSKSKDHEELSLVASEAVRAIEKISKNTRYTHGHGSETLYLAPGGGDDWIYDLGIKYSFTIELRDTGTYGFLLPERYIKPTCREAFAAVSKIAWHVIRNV

Row | Compound | pIC50 (TAFIa) | also measured
1 | C[C@H](CN)C[C@@H](Cc1cn([C@H]2CC[C@H](C)CC2)cn1)C(=O)O [34(2S,4S form), (2S,4S)-5-Amino-4-methyl-2-{[1-(trans-4-methylcyclohexyl)-1H-imidazol-4-yl]methyl}valeric acid] | 8.27 | –
2 | NCCCC(Cc1cn(C2CCCCC2)cn1)C(=O)O (stereo not shown) [Example 1, 5-Amino-2-[(1-cyclohexyl-1H-imidazol-4-yl)methyl]valeric acid] | 7.68 | –
3 | C[C@H]1CC[C@H](n2cnc(C[C@@H](CCCN)C(=O)O)c2)CC1 [15(2R form), (2R)-5-Amino-2-{[1-(trans-4-methylcyclohexyl)-1H-imidazol-4-yl]methyl}valeric acid] | < 7.00 | –
4 | C[C@@H](CN)C[C@H](Cc1cn([C@H]2CC[C@H](C)CC2)cn1)C(=O)O [35(2R,4R form), (2R,4R)-5-Amino-4-methyl-2-{[1-(trans-4-methylcyclohexyl)-1H-imidazol-4-yl]methyl}valeric acid] | < 7.00 | –
5 | NCCCC(Cc1cn([C@@H]2C[C@H]3C[C@H]3C2)cn1)C(=O)O (mixture of isomers) [Example 6, (2RS)-5-Amino-2-({1-[(1R,3s,5S)-bicyclo[3.1.0]hexan-3-yl]-1H-imidazol-4-yl}methyl)valeric acid] | 7.68 | –
6 | CC[C@H]1CC[C@H](n2cnc(CC(CCCN)C(=O)O)c2)CC1 (stereo partly drawn) [Example 3, 5-Amino-2-{[1-(trans-4-ethylcyclohexyl)-1H-imidazol-4-yl]methyl}valeric acid] | 8.06 | –
7 | C[C@H](CN)C[C@H](Cc1cn([C@H]2CC[C@H](C)CC2)cn1)C(=O)O [34(2R,4S form), (2R,4S)-5-Amino-4-methyl-2-{[1-(trans-4-methylcyclohexyl)-1H-imidazol-4-yl]methyl}valeric acid] | 7.47 | –
8 | NCCCC(Cc1cn([C@H]2CC3CCC2C3)cn1)C(=O)O (stereo partly drawn) [Example 12, 5-Amino-2-([1-[endo-bicyclo[2.2.1]hept-2-yl]-1H-imidazol-4-yl]methyl)valeric acid] | 7.60 | –
9 | CC1(C)CCCC(n2cnc(CC(CCCN)C(=O)O)c2)C1 (stereo not shown) [Example 33, 5-Amino-2-{[1-(3,3-dimethylcyclohexyl)-1H-imidazol-4-yl]methyl}valeric acid] | 8.12 | –
10 | CC1CCCC(n2cnc(CC(CCCN)C(=O)O)c2)C1 (stereo not shown) [Example 9, 5-Amino-2-{[1-(3-methylcyclohexyl)-1H-imidazol-4-yl]methyl}valeric acid] | 7.74 | –
11 | NCCCC(Cc1cn([C@H]2CC[C@H](O)CC2)cn1)C(=O)O (stereo partly drawn) [Example 7, 5-Amino-2-{[1-(trans-4-hydroxycyclohexyl)-1H-imidazol-4-yl]methyl}valeric acid] | 7.59 | –
12 | C[C@H](CN)OC(Cc1cn([C@H]2CC[C@H](C)CC2)cn1)C(=O)O (stereo partly drawn) [Example 25, 2-[(1R)-2-Amino-1-methylethoxy]-3-[1-(trans-4-methylcyclohexyl)-1H-imidazol-4-yl]propionic acid] | 8.15 | –
13 | C[C@H]1CC[C@H](n2cnc(C[C@H](CCCN)C(=O)O)c2)CC1 [Example 40, (2S)-5-Amino-2-{[1-(trans-4-methylcyclohexyl)-1H-imidazol-4-yl]methyl}valeric acid p-toluenesulfonate anhydrate] | 8.59 | –
14 | C[C@H]1CC[C@@H](n2cnc(CC(CCCN)C(=O)O)c2)CC1 (stereo partly drawn) [Example 39, 5-Amino-2-{[1-(cis-4-methylcyclohexyl)-1H-imidazol-4-yl]methyl}valeric acid] | 8.03 | –
15 | NCCCC(Cc1cn([C@H]2CC[C@H](Oc3ccncc3)CC2)cn1)C(=O)O (stereo partly drawn) [Example 38, 5-Amino-2-({1-[trans-4-(pyridin-4-yloxy)cyclohexyl]-1H-imidazol-4-yl}methyl)valeric acid hydrochloride] | 8.01 | –
16 | CCC(CN)CC(Cc1cn([C@H]2CC[C@H](C)CC2)cn1)C(=O)O (stereo partly drawn) [Example 36, 4-(Aminomethyl)-2-{[1-(trans-4-methylcyclohexyl)-1H-imidazol-4-yl]methyl}hexanoic acid hydrochloride] | 8.00 | –
17 | C[C@H]1CC[C@H](n2cnc(C[C@H](CCCN)C(=O)O)c2)CC1 [15(2S form), (2S)-5-Amino-2-{[1-(trans-4-methylcyclohexyl)-1H-imidazol-4-yl]methyl}valeric acid] | 8.11 | pEC50 (normal human plasma): 7.92
18 | CCC1CC(n2cnc(CC(CCCN)C(=O)O)c2)C1 (stereo not shown) [Example 4, 5-Amino-2-{[1-(3-ethylcyclobutyl)-1H-imidazol-4-yl]methyl}valeric acid] | 7.85 | –
19 | potato carboxypeptidase inhibitor (PCI): TAFIa-inhibiting polypeptide consisting of 39 amino acids (QQHADPICNKPCKTHDDCSGAWFCQACWNSARTCGPYVG; UniProt P01075 1-39, looked up) | – | antithrombotic effect [1]: antithrombotic effect
20 | NCCCC(Cc1cn([C@@H]2CC3CCC2C3)cn1)C(=O)O (stereo partly drawn) [Example 11, 5-Amino-2-({1-[exo-bicyclo[2.2.1]hept-2-yl]-1H-imidazol-4-yl}methyl)valeric acid] | 7.85 | –
21 | NCCCC(Cc1cn([C@H]2CC[C@H](Oc3ccccc3)CC2)cn1)C(=O)O (stereo partly drawn) [Example 14, 5-Amino-2-{[1-(trans-4-phenoxycyclohexyl)-1H-imidazol-4-yl]methyl}valeric acid] | 7.89 | –
22 | C[C@H]1CC[C@H](n2cnc(CC(CCCN)C(=O)O)c2)CC1 (stereo partly drawn) [Example 2, 5-Amino-2-{[1-(trans-4-methylcyclohexyl)-1H-imidazol-4-yl]methyl}valeric acid] | 8.08 | –
23 | NCCCC(Cc1cn([C@H]2CC[C@@H](O)CC2)cn1)C(=O)O (stereo partly drawn) [Example 37, 5-Amino-2-{[1-(cis-4-hydroxycyclohexyl)-1H-imidazol-4-yl]methyl}valeric acid] | 7.72 | –
24 | NCCCC(Cc1cn(C2C3CC4CC(C3)CC2C4)cn1)C(=O)O (stereo not shown) [Example 13, 2-[(1-Adamantan-2-yl-1H-imidazol-4-yl)methyl]-5-aminovaleric acid] | 7.92 | –
25 | C[C@H]1CC[C@H](n2cnc(CC(OCCN)C(=O)O)c2)CC1 (stereo partly drawn) [Example 24, 2-(2-Aminoethoxy)-3-[1-(trans-4-methylcyclohexyl)-1H-imidazol-4-yl]propionic acid] | 8.09 | –
26 | CC1CC(n2cnc(CC(CCCN)C(=O)O)c2)C1 (stereo not shown) [Example 5, 5-Amino-2-{[1-(3-methylcyclobutyl)-1H-imidazol-4-yl]methyl}valeric acid] | 7.44 | –
27 | CC1(O)CCC(n2cnc(CC(CCCN)C(=O)O)c2)CC1 (stereo not shown) [Example 8, 5-Amino-2-{[1-(4-hydroxy-4-methylcyclohexyl)-1H-imidazol-4-yl]methyl}valeric acid] | 7.72 | –
28 | NCCCC(Cc1cn(C2CCCCCC2)cn1)C(=O)O (stereo not shown) [Example 10, 5-Amino-2-[(1-cycloheptyl-1H-imidazol-4-yl)methyl]valeric acid] | 7.68 | –
29 | C[C@H]1CC[C@H](n2cnc(CC(C(=O)O)N3CC[C@H](N)C3)c2)CC1 (stereo partly drawn) [Example 26, 2-[(3S)-3-Aminopyrrolidin-1-yl]-3-[1-(trans-4-methylcyclohexyl)-1H-imidazol-4-yl]propionic acid] | 7.68 | –
30 | C[C@@H](CN)C[C@@H](Cc1cn([C@H]2CC[C@H](C)CC2)cn1)C(=O)O [35(2S,4R form), (2S,4R)-5-Amino-4-methyl-2-{[1-(trans-4-methylcyclohexyl)-1H-imidazol-4-yl]methyl}valeric acid] | 8.29 | –
